Data on four molecules can be found in US10371695B2, “Identifying compounds modifying a cellular phenotype” (2cureX ApS, priority 2014, dated 2019).

Structures are written as SMILES.

Assay [1] has as its system micro-tumors (spheroids) from patient tumor tissue. Nature of the assay: Chemo-sensitivity screening of compounds distributed in Matrigel on patient micro-tumors (growth by imaged area). Type of assay: cell-based, human. As to conditions: for cancer cell proliferation (spheroid/micro-tumour growth) inhibition: increasing concentrations, inhibited = spheroid grown to less than 1.5x original size after 7 days at least at highest concentrations tested. On the procedure:
Materials and Solutions: • Support: Matrigel® available from BD Biosciences. • Arrays: Micro slide format arrays with 96 individual wells surrounded by a common reservoir.
Compounds, Matrigel® and arrays are kept at 5° C. (cooling device) throughout the process when not in the freezer. • 1. Compounds were diluted in Matrigel® (Fluid) as single compounds and/or in combinations equal to standard treatment regimens of patients with colorectal cancer. • 2. Matrigel® with compounds were added to individual wells of the arrays (Fluid) • 3. Arrays were centrifuged 10 min at 3000 RPM (cold) • 4. Arrays were stored at −18° C. (Solid)—ready for use
Materials and Solutions: • Array prepared as described in Example 1 • STEM media: DMEM/F12 w. 15% Hepes (Gibco 11330-032), StemPro hESC SFM growth supplement (50×):1× • BSA 25%, Gibco A10008-01: 1.8%, FGF-basic (10 ug/ml): 8 ng/ml, 2-Mercaptoethanol Gibco 21985 (55 mM): 0.1 mM, Penicillin/streptomycin 200 U/ml/200 ug/ml (=2× usual conc.), Gentamycin Sigma G1272: 1:100 (=2× usual conc.), Amphotericin (fungicide): 1:100 (=1× usual conc.), Hepes 15 mM • Cooling device for keeping 5° C. • Incubator, 37° C. (CO2, 99% humidity for cell culture)
Procedure: • 1. Tumor tissue from patient was prepared to form a population of small individual micro-tumors (spheroids) • 2. Micro-tumors were suspended in cold STEM media • 3. The array was taken directly from freezer and placed on the cooling device (solid) • 4. 3 ml micro tumor suspension was added to the reservoir of the array and the array was left for 7 min. to allow cells to distribute and settle into individual wells of the array • 5. STEM media was gently removed from reservoir—leaving the micro tumors in the wells • 6. The array was moved to refrigerator (5° C.) and left for 30 min to allow Matrigel® to liquefy and the cells to settle at the bottom of the array (fluid) • 7. Hereafter the array was incubated at 37° C. for 1 hr. to allow the Matrigel® to solidify and entrap the cells in a certain position (solid) • 8. The array with micro-tumors positioned at the bottom was imaged at an automated microscope • 9. Images were acquired every day for 10 days and micro-tumor growth (and inhibition of growth) was measured by quantifying the area of the micro-tumors.
In general cancer cell proliferation as evidenced by spheroid (micro-tumour) growth was considered inhibited if the spheroid had grown to less than 1.5× the original size after 7 days of incubation at least at the highest concentrations tested.

Assay [2] has the same test system. Nature of the assay: Screening of compounds imbedded in thermo sensitive nano-particles distributed in Matrigel on patient micro-tumors. Type of assay: cell-based, human. The conditions noted are these: FIG. 4; images at day 0, 3, 5 and 7; compound released from nano-particles at 42° C. As for the experimental part:
Materials and Solutions: • Nano-particles containing chemo therapeutic compounds • Support: Matrigel® available from BD Biosciences, • Arrays: Micro slide format array with 96 individual wells surrounded by a common reservoir as described in Example 1 • Cooling device for keeping 5° C.
Nano-particles, Matrigel® and arrays were kept at 5° C. (cooling block) throughout the process when not in the freezer. • 1. Compound containing nano-particles were diluted in Matrigel® (fluid). • 2. Matrigel containing the nano-particles (from above point 1) were added to individual wells of the array • 3. The arrays were centrifuged 10 min at 3000 RPM (cold) • 4. The arrays were stored at −18° C. for 24 hrs. (solid)
Materials and Solutions: • Array prepared accordingly to Example 2 • STEM media: DMEM/F12 w. 15% Hepes (Gibco 11330-032), StemPro hESC SFM growth supplement (50×):1× • BSA 25%, Gibco A10008-01: 1.8%, FGF-basic (10 ug/ml): 8 ng/ml, 2-Mercaptoethanol Gibco 21985 (55 mM): 0.1 mM, Penicillin/streptomycin 200 U/ml/200 ug/ml (=2× usual conc.), Gentamycin Sigma G1272: 1:100 (=2× usual conc.), Amphotericin (fungicide): 1:100 (=1× usual conc.), Hepes 15 mM • Incubator, 37° C. […]
Procedure: • 1. […] Images were acquired every day for 10 days and micro-tumor growth (and inhibition of growth) was measured by quantifying the area of the micro-tumors.

As for `O=C1[O][Pt]2([NH][C@@H]3CCCC[C@H]3[NH]2)[O]C1=O` [Oxaliplatin], the “cancer cell proliferation (spheroid/micro-tumour growth) inhibition” value in assay [1] (patient 2, FIG. 2a) is reported as “inhibited”.

Consider `CCc1c2c(nc3ccc(OC(=O)N4CCC(N5CCCCC5)CC4)cc13)-c1cc3c(c(=O)n1C2)COC(=O)[C@]3(O)CC` [Irinotecan], for which the “time trace of micro-tumour (spheroid) growth, cancer cell proliferation” value in assay [1] (FIG. 3, presence or absence of compound) was “clearly inhibited cancer cell proliferation”. Moreover, the “micro-tumour growth, proliferation of cancer cells” value in assay [2] is “inhibits proliferation”. `CCc1c2c(nc3ccc(O)cc13)-c1cc3c(c(=O)n1C2)COC(=O)[C@]3(O)CC` [SN38]: the “cancer cell proliferation (spheroid/micro-tumour growth) inhibition” value in assay [1] (patient 1, FIG. 2a) is “inhibited”; in assay [1] (patient 2, FIG. 2a), “inhibited”. With `O=c1[nH]cc(F)c(=O)[nH]1` [5FU], the “cancer cell proliferation (spheroid/micro-tumour growth) inhibition” value in assay [1] (patient 1, FIG. 2a) is “inhibited”; in assay [1] (patient 2, FIG. 2a) it was “inhibited”.
